± gives the standard deviation of the averaged measurements.
Columns and labels:
Assay in all cases: normalised growth rate inhibition (GR value) relative to DMSO control (GR (1 = untreated growth, 0 = cytostasis, <0 = cytotoxic)); higher = less growth inhibition
Settings in all cases: 72 h
BT20 = test system: BT20
Protocol: (§1)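 Breast cancer cell lines (BT-20, Hs 578T, MCF 10A, MCF7, MDA-MB-231, SK-BR-3) were plated in 384-well plates and treated 24 h later with drugs at six concentrations (0.04-10 µM). Viable cells were counted by Hoechst/dead-cell-stain imaging at 0 and 72 h. Counts were normalised to DMSO controls on the same plate to give the relative cell count and the growth-rate inhibition (GR) value; technical plate triplicates were averaged for each biological replicate.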

HS578T = test system: HS578T
Protocol: as §1

MCF10A = test system: MCF10A
Protocol: as §1

MCF7 = test system: MCF7
Protocol: as §1

MDAMB231 = test system: MDAMB231
Protocol: as §1

SKBR3 = test system: SKBR3
Protocol: as §1

SMILES	normalised growth rate inhibition (BT20; 0.04 µM)	normalised growth rate inhibition (BT20; 0.12 µM)	normalised growth rate inhibition (BT20; 0.37 µM)	normalised growth rate inhibition (BT20; 1.11 µM)	normalised growth rate inhibition (BT20; 3.33 µM)	normalised growth rate inhibition (BT20; 10 µM)	normalised growth rate inhibition (HS578T; 0.04 µM)	normalised growth rate inhibition (HS578T; 0.12 µM)	normalised growth rate inhibition (HS578T; 0.37 µM)	normalised growth rate inhibition (HS578T; 1.11 µM)	normalised growth rate inhibition (HS578T; 3.33 µM)	normalised growth rate inhibition (HS578T; 10 µM)	normalised growth rate inhibition (MCF10A; 0.04 µM)	normalised growth rate inhibition (MCF10A; 0.12 µM)	normalised growth rate inhibition (MCF10A; 0.37 µM)	normalised growth rate inhibition (MCF10A; 1.11 µM)	normalised growth rate inhibition (MCF10A; 3.33 µM)	normalised growth rate inhibition (MCF10A; 10 µM)	normalised growth rate inhibition (MCF7; 0.04 µM)	normalised growth rate inhibition (MCF7; 0.12 µM)	normalised growth rate inhibition (MCF7; 0.37 µM)	normalised growth rate inhibition (MCF7; 1.11 µM)	normalised growth rate inhibition (MCF7; 3.33 µM)	normalised growth rate inhibition (MCF7; 10 µM)	normalised growth rate inhibition (MDAMB231; 0.04 µM)	normalised growth rate inhibition (MDAMB231; 0.12 µM)	normalised growth rate inhibition (MDAMB231; 0.37 µM)	normalised growth rate inhibition (MDAMB231; 1.11 µM)	normalised growth rate inhibition (MDAMB231; 3.33 µM)	normalised growth rate inhibition (MDAMB231; 10 µM)	normalised growth rate inhibition (SKBR3; 0.04 µM)	normalised growth rate inhibition (SKBR3; 0.12 µM)	normalised growth rate inhibition (SKBR3; 0.37 µM)	normalised growth rate inhibition (SKBR3; 1.11 µM)	normalised growth rate inhibition (SKBR3; 3.33 µM)	normalised growth rate inhibition (SKBR3; 10 µM)
CC(C)(C)c1cnc(CSc2cnc(NC(=O)C3CCNCC3)s2)o1	0.885 ± 0.061	0.134 ± 0.27	-0.239 ± 0.067	-0.323 ± 0.17	-0.33 ± 0.19	-0.299 ± 0.2	0.786 ± 0.044	-0.123 ± 0.12	-0.146 ± 0.094	-0.155 ± 0.12	-0.137 ± 0.095	-0.148 ± 0.11	0.921 ± 0.093	0.0575 ± 0.011	-0.186 ± 0.2	-0.256 ± 0.23	-0.261 ± 0.23	-0.254 ± 0.19	-0.0791 ± 0.16	-0.295 ± 0.04	-0.329 ± 0.061	-0.326 ± 0.058	-0.34 ± 0.063	-0.354 ± 0.083	0.314 ± 0.11	-0.201 ± 0.17	-0.24 ± 0.17	-0.23 ± 0.15	-0.203 ± 0.18	-0.201 ± 0.14	0.464 ± 0.18	-0.223 ± 0.15	-0.312 ± 0.17	-0.332 ± 0.17	-0.343 ± 0.21	-0.367 ± 0.21
CC(C)CC(=O)Nc1n[nH]c2c1CN(C(=O)C1CCN(C)CC1)C2(C)C	0.52 ± 0.085	0.436 ± 0.047	0.276 ± 0.097	0.109 ± 0.12	-0.0127 ± 0.079	-0.219 ± 0.12	0.497 ± 0.057	0.427 ± 0.073	0.227 ± 0.11	0.0474 ± 0.12	-0.035 ± 0.096	-0.157 ± 0.11	0.322 ± 0.09	0.228 ± 0.053	0.116 ± 0.063	0.0382 ± 0.073	-0.0512 ± 0.066	-0.187 ± 0.19	0.207 ± 0.15	0.143 ± 0.1	0.0348 ± 0.063	-0.0125 ± 0.053	-0.102 ± 0.12	-0.328 ± 0.029	0.304 ± 0.16	0.211 ± 0.072	0.0329 ± 0.056	-0.0471 ± 0.091	-0.13 ± 0.13	-0.262 ± 0.2	0.145 ± 0.15	0.0952 ± 0.085	0.0136 ± 0.079	-0.0334 ± 0.073	-0.0738 ± 0.074	-0.305 ± 0.21
CCN(CC)CCCCNc1ncc2cc(-c3cc(OC)cc(OC)c3)c(NC(=O)NC(C)(C)C)nc2n1	1.1 ± 0.039	1.08 ± 0.058	1.09 ± 0.056	1.14 ± 0.066	1.16 ± 0.049	0.853 ± 0.18	0.852 ± 0.074	0.824 ± 0.083	0.835 ± 0.074	0.846 ± 0.061	0.809 ± 0.071	0.164 ± 0.14	1.022 ± 0.0032	1.005 ± 0.0025	0.9981 ± 0.0038	0.9929 ± 0.0079	0.984 ± 0.016	0.644 ± 0.15	1.1 ± 0.066	1.08 ± 0.029	1.04 ± 0.078	1.1 ± 0.066	1.1 ± 0.12	0.572 ± 0.16	1.08 ± 0.053	1.07 ± 0.032	1.08 ± 0.079	1.07 ± 0.054	1.04 ± 0.018	0.0514 ± 0.23	1.14 ± 0.12	1.12 ± 0.13	1.08 ± 0.085	1.13 ± 0.12	1.12 ± 0.11	0.209 ± 0.2
CCc1cc(Nc2nccc(-c3c(-c4ccc(OC)c(C(=O)Nc5c(F)cccc5F)c4)nc4ccccn34)n2)c(OC)cc1N1CCC(N2CCN(S(C)(=O)=O)CC2)CC1	0.821 ± 0.056	0.902 ± 0.036	0.916 ± 0.017	0.937 ± 0.042	0.961 ± 0.029	0.999 ± 0.043	0.96 ± 0.025	0.958 ± 0.013	0.965 ± 0.017	0.931 ± 0.024	0.951 ± 0.032	0.955 ± 0.023	0.719 ± 0.2	0.699 ± 0.19	0.656 ± 0.22	0.608 ± 0.23	0.621 ± 0.23	0.634 ± 0.18	0.473 ± 0.16	0.418 ± 0.17	0.404 ± 0.092	0.363 ± 0.081	0.358 ± 0.069	0.319 ± 0.091	0.813 ± 0.093	0.864 ± 0.045	0.893 ± 0.027	0.9 ± 0.011	0.971 ± 0.02	0.939 ± 0.024	0.701 ± 0.094	0.841 ± 0.045	0.98 ± 0.02	0.986 ± 0.057	1.04 ± 0.023	1.05 ± 0.027
CN(c1ncccc1CNc1nc(Nc2ccc3c(c2)CC(=O)N3)ncc1C(F)(F)F)S(C)(=O)=O	0.921 ± 0.011	0.879 ± 0.031	0.815 ± 0.069	0.583 ± 0.13	0.201 ± 0.15	-0.212 ± 0.071	0.897 ± 0.02	0.812 ± 0.035	0.735 ± 0.034	0.62 ± 0.042	0.438 ± 0.048	-0.0953 ± 0.11	0.894 ± 0.02	0.814 ± 0.017	0.66 ± 0.014	0.4 ± 0.098	0.0782 ± 0.016	-0.191 ± 0.2	0.8557 ± 0.0043	0.759 ± 0.054	0.529 ± 0.066	0.251 ± 0.094	-0.0743 ± 0.044	-0.309 ± 0.069	0.897 ± 0.027	0.825 ± 0.081	0.741 ± 0.075	0.577 ± 0.14	0.166 ± 0.14	-0.196 ± 0.22	1.05 ± 0.051	0.984 ± 0.095	0.704 ± 0.099	0.198 ± 0.053	-0.0632 ± 0.084	-0.254 ± 0.25
CNC(=O)Nc1ccc(-c2nc(N3CC4CCC(C3)O4)c3cnn(C4CCC5(CC4)OCCO5)c3n2)cc1	0.473 ± 0.17	0.269 ± 0.11	0.208 ± 0.084	0.15 ± 0.064	0.113 ± 0.075	0.0435 ± 0.086	0.268 ± 0.079	0.212 ± 0.066	0.198 ± 0.091	0.172 ± 0.096	0.177 ± 0.093	0.101 ± 0.15	0.506 ± 0.15	0.284 ± 0.064	0.224 ± 0.057	0.176 ± 0.017	0.151 ± 0.042	0.14 ± 0.026	0.16 ± 0.091	0.14 ± 0.1	0.13 ± 0.069	0.149 ± 0.1	0.0933 ± 0.1	-0.00137 ± 0.14	0.499 ± 0.16	0.369 ± 0.18	0.301 ± 0.15	0.285 ± 0.12	0.23 ± 0.12	0.0984 ± 0.14	0.0703 ± 0.093	0.000862 ± 0.13	-0.00643 ± 0.17	-0.00784 ± 0.15	-0.0626 ± 0.15	-0.0635 ± 0.14

Reference: the supplement of paper PMC5662764
